Reference: PubChem BioAssay (NCI)
Values joined by “and” are separate entries in the source; they are usually repeats but may differ in a detail not shown here. Equal values may be shown once.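 Interpolation was linear, between the two tested concentrations surrounding the appropriate level; five concentrations were tested over 48 hours in 96-well plates. Here, GI50 denotes the concentration required for 50% inhibition of growth. The concentration for full growth arrest is given as TGI.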

Tests used:
Experiment in all cases: NCI tumour cell line growth inhibition, 48 h
[1] = tested on: M14 melanoma
[2] = tested on: 786-0 renal
[3] = tested on: DU-145 prostate
[4] = tested on: TK-10 renal
[5] = tested on: MDA-MB-435
[6] = tested on: OVCAR-3 ovarian
[7] = tested on: SK-MEL-5 melanoma
[8] = tested on: CAKI-1 renal
[9] = tested on: HOP-62 NSCLC
[10] = tested on: NCI-H522 lung

| Structure (SMILES) | GI50 [1] | GI50 [2] | GI50 [3] | TGI [3] [µM] | GI50 [4] | TGI [4] [µM] | GI50 [5] [µM] | TGI [5] [µM] | TGI [6] [µM] | TGI [7] [µM] | TGI [8] [µM] | TGI [1] [µM] | TGI [9] [µM] | TGI [10] [µM] | TGI [2] [µM] | GI50 [7] [µM] | GI50 [8] [µM] | GI50 [9] [µM] | GI50 [10] [µM] | GI50 [6] [µM] |
| --- | --- | --- | --- | --- | --- | --- | --- | --- | --- | --- | --- | --- | --- | --- | --- | --- | --- | --- | --- | --- |
| COc1cc(NCc2ccc3nc(N)nc(N)c3c2C)cc(OC)c1OC (tested in a mixture with another compound) | 0.0222 µM and 0.025 µM | 0.0145 µM and 0.025 µM | 0.172 µM and 0.025 µM | 38.2 | 23.2 µM and 4.8 µM | 47.5 | 0.000388 | 50.1 | 77.8 | – | – | – | – | – | – | – | – | – | – | – |
| N#C/C1=C(\N)CCSSSC1 | – | – | – | – | – | > 100 | – | – | > 100 | 60.9 | > 100 | 95.9 | 89.6 | 45.6 | > 100 | – | – | – | – | – |
| CCOc1ccccc1NC(=O)C(=O)CC(=O)c1sc(Nc2nnc(-c3ccc(Cl)c(Cl)c3)o2)nc1C | – | – | – | – | – | > 100 | – | – | > 100 | > 100 | > 100 | > 100 | > 100 | – | > 100 | – | – | – | – | – |
| OCC1OC(c2nc(C3=NCCCN3)cs2)C(O)C1O (stereo not drawn) | – | – | – | – | – | > 100 | – | – | > 10 | – | > 100 | > 100 | > 100 | > 100 | > 100 | – | – | – | – | – |
| O=C(/C=C/c1cccc2ccccc12)c1ccccc1Cl | – | – | – | – | – | 28.1 | – | – | 25.6 | 30.8 | 27.9 | 29.3 | 37.3 | 27.5 | 27.2 | – | – | – | – | – |
| C1=CC(N(c2ccccc2)C2C=CCCC2)CCC1 (stereo not drawn) | – | – | – | – | – | > 100 | – | – | – | > 100 | > 100 | > 100 | – | > 100 | > 100 | – | – | – | – | – |
| CCC[CH2][Sn]([Cl])([CH2]CCC)[CH2]CCC | 0.162 µM | 0.087 µM | – | – | 0.129 µM | 0.261 | – | – | 0.312 | 0.808 | 1.23 | 0.308 | 1.13 | 0.27 | 0.21 | 0.192 | 0.167 | 0.271 | 0.116 | 0.142 |
| CCCc1nc(NC#N)nc(C(=O)Nc2ccccc2)c1CC | – | – | – | – | – | > 100 | – | – | > 100 | > 100 | > 100 | > 100 | > 100 | > 100 | > 100 | – | – | – | – | – |
| CC12CP(=O)(c3ccccc3)CC1C2(Cl)Cl (stereo not drawn) | – | – | – | – | – | > 100 | – | – | > 100 | > 100 | – | > 100 | > 100 | > 100 | > 100 | – | – | – | – | – |
| CCOC(=O)C(=[N+]=[N-])[Si](C)(C)C | – | – | – | – | – | > 100 | – | – | > 100 | > 100 | > 100 | – | 49.7 | – | > 100 | – | – | – | – | – |
| CCOc1ccc(NC(=O)CC#N)cc1 | – | – | – | – | – | > 100 | – | – | > 100 | > 100 | > 100 | > 100 | > 100 | > 100 | > 100 | – | – | – | – | – |
| O=C(Nc1nc(=S)c2c(ncn2CCOC(=O)c2ccccc2)[nH]1)c1ccccc1 | – | – | – | – | – | > 100 | – | – | > 100 | > 100 | > 100 | > 100 | 79.6 | 68.1 | > 100 | – | – | – | – | – |
| CC1CN(C(=O)CN2CCC(CCCCN(C)C)CC2)c2ccccc2NC1=O (stereo not drawn) | – | – | – | – | – | – | – | – | > 100 | > 100 | > 100 | > 100 | > 100 | – | > 100 | – | – | – | – | – |
| COC(=O)C(Cc1nc2ccc(Cl)cc2[nH]c1=O)/C(=N\N)C(=O)Nc1cc(C)c(Cl)cc1S(=O)(=O)O (stereo not drawn) | – | – | – | – | – | – | – | – | > 100 | > 100 | > 100 | > 100 | > 100 | > 100 | > 100 | – | – | – | – | – |
| CC(=O)c1sc(Nc2nnc(-c3ccc(-c4nnc(Nc5nc(C)c(C(C)=O)s5)o4)cc3)o2)nc1C | – | – | – | – | – | > 100 | – | – | > 100 | – | > 10 | > 100 | > 100 | > 10 | > 100 | – | – | – | – | – |
| Cc1cc(Cl)ccc1NC(=O)C(=O)Cc1nc2ccccc2o1 | – | – | – | – | – | > 100 | – | – | > 100 | > 100 | > 100 | > 100 | > 100 | > 100 | > 100 | – | – | – | – | – |
| CCN1CCC(O)(c2ccc(OC)cc2)C(C(=O)c2ccc(OC)cc2)C1 (stereo not drawn) | – | – | – | – | – | 10.4 | – | – | 31.6 | 29 | 31.3 | 29.7 | > 100 | 4.06 | 26.8 | – | – | – | – | – |

| Structure (SMILES) | GI50 [1] | GI50 [2] | GI50 [3] | TGI [3] [µM] | GI50 [4] | TGI [4] [µM] | GI50 [5] [µM] | TGI [5] [µM] | TGI [6] [µM] | TGI [7] [µM] | TGI [8] [µM] | TGI [1] [µM] | TGI [9] [µM] | TGI [10] [µM] | TGI [2] [µM] | GI50 [7] [µM] | GI50 [8] [µM] | GI50 [9] [µM] | GI50 [10] [µM] | GI50 [6] [µM] |
| --- | --- | --- | --- | --- | --- | --- | --- | --- | --- | --- | --- | --- | --- | --- | --- | --- | --- | --- | --- | --- |
| CCC(C)COC(=O)c1ccc(N=Cc2ccc(C=Nc3ccc(C(=O)OCC(C)CC)cc3)cc2)cc1 (stereo not drawn) | – | – | – | – | – | – | – | – | > 100 | > 100 | > 100 | > 100 | > 100 | > 100 | > 100 | – | – | – | – | – |
| O=C1/C(=C/c2ccc3c(c2)OCO3)SC2C=Nc3ccccc3N12 (stereo not drawn) | – | – | – | – | – | > 100 | – | – | > 100 | > 100 | > 100 | > 100 | > 100 | > 100 | > 100 | – | – | – | – | – |
| Cc1c2c(C#N)nccc2c(C)c2c1c1ccccc1n2Cc1ccccc1 | – | – | – | > 100 | – | > 100 | – | > 100 | > 100 | > 100 | > 100 | > 100 | > 100 | – | > 100 | – | – | – | – | – |
| CC(=O)Oc1c2c(c(O)c3ccccc13)C(n1cnc3c(ncn3C3OC(CO)C4OC(C)(C)OC43)c1=N)CCC2 (stereo not drawn) | – | – | – | – | – | 35.9 | – | – | 27.8 | 24.5 | 50.1 | – | 30.6 | 19.3 | 27.8 | – | – | – | – | – |
| CCOc1ccc(NC(=O)C(=O)CC(=O)c2c(C)n([O-])c3ccccc3[n+]2=O)cc1 | – | – | – | – | – | > 100 | – | – | > 100 | > 100 | > 100 | > 100 | > 100 | > 100 | > 100 | – | – | – | – | – |
| COc1cc(-c2cc(-c3cc4c([nH]c5ccccc54)c(-c4cc(OC)c(OC)c(OC)c4)n3)cc(-c3ccccc3)n2)cc(OC)c1OC | 3.49 µM | 7.15 µM | 11 µM | > 100 | 4.5 µM | 31.2 | – | – | 17.3 | 7.61 | > 100 | > 100 | > 100 | 8.01 | > 100 | 2.46 | 5.67 | 4.53 | 2.32 | 3.9 |
| COc1cccc(C2=NC(C(C)C)CO2)c1 (stereo not drawn) | – | – | – | – | – | > 100 | – | – | > 100 | > 100 | > 100 | > 100 | > 100 | > 100 | > 100 | – | – | – | – | – |
| COC1(OC)C(N(C)C)=C(Cl)C(=O)/C1=C/C=O | – | – | – | – | – | > 100 | – | – | > 100 | > 100 | > 100 | > 100 | > 100 | – | > 100 | – | – | – | – | – |
| Cc1[nH]c2ccccc2c1C(=O)/C=C/c1ccccc1O | – | – | – | – | – | > 100 | – | – | > 100 | > 100 | > 100 | > 100 | > 100 | > 100 | > 100 | – | – | – | – | – |
| COc1cc2c(cc1OCCCNC(=O)c1cccc3c(=O)c4ccccc4[nH]c13)N=C[C@@H]1CCCN1C2=O | < 0.01 µM | < 0.01 µM | < 0.01 µM | 13.5 | < 0.0434 µM | 2.66 | – | – | 6.64 | – | 0.571 | < 0.01 | 0.399 | > 33.6 | 24 | – | 0.116 | < 0.01 | – | – |
| Nc1c(C(=O)Nc2ccncc2)sc2nc3c(cc12)CCCCCCCC3 | 0.93 µM | 0.93 µM | 0.944 µM | 1.72 | 1.17 µM | 1.98 | 0.869 | 1.6 | 1.68 | 1.52 | 1.49 | 1.75 | – | – | 1.66 | 0.831 | 0.805 | – | – | 0.946 |
| N#CC(C(=O)C(=O)C(C#N)c1ccc(Br)cc1)c1ccc(Br)cc1 (stereo not drawn) | – | – | – | – | – | 30.6 | – | – | 21.4 | 27.5 | 37.1 | 31.6 | 27.2 | – | 27 | – | – | – | – | – |
| [N-]=[N+]=N[C@H]1C[C@@H](CO)O[C@H]1n1cnc2c(N)ncnc21 | – | – | – | – | – | > 100 | – | – | > 100 | > 100 | > 100 | > 100 | > 100 | > 100 | > 100 | – | – | – | – | – |
| Cc1ccc(NC(=O)CCc2cc(C(C)(C)C)nc(=S)[nH]2)cc1C | – | – | – | – | – | > 100 | – | – | > 100 | > 100 | > 100 | > 100 | > 100 | > 100 | > 100 | – | – | – | – | – |
| CCCN1C(=O)N(CCC)C2C1NC(=S)N2/N=C/C=C/c1ccccc1OC (stereo not drawn) | 0.455 µM | 0.779 µM | 0.557 µM | > 100 | 12.6 µM | > 100 | – | – | 0.815 | 15.9 | 97.5 | > 100 | > 100 | 12.7 | > 68.8 | 0.516 | 0.508 | 0.713 | 0.336 | 0.273 |
| CN(C)CC1CCCC/C1=N/OC(=O)c1ccc(Cl)cc1 (stereo not drawn) | – | – | – | – | – | > 100 | – | – | > 100 | – | > 100 | > 100 | > 100 | > 100 | > 100 | – | – | – | – | – |
| COc1ccc(CC2NCCc3c2[nH]c2ccccc32)cc1 (stereo not drawn) | – | – | – | – | – | > 100 | – | – | > 100 | > 100 | – | > 100 | > 100 | – | > 100 | – | – | – | – | – |
